ChEMBL document CHEMBL5321216, “Discovery of bipyridine amide derivatives targeting pRXRα-PLK1 interaction for anticancer therapy” (Eur J Med Chem, 2023)
The source made the active and inactive calls. The calls are words filed in the database; no cut-off is given here.

How the values were obtained:
MDA-MB-231 [1] = experiment: Antitumor activity against human MDA-MB-231 cells xenografted in BALB/c nude mouse assessed as reduction in tumor volume at 25 mg/kg/day, ip administered for 15 days and measured once a day; assay type: functional, organism-based; conditions: time 15.0 day
MDA-MB-231 [2] = experiment: Induction of apoptosis in human MDA-MB-231 cells assessed as live cells at 31.25 nM incubated for 24 hrs by annexin V-FITC/PI staining based flow cytometry analysis (reference value: 91.3%); assay type: functional
[3] = Cytotoxicity against human L02 cells assessed as inhibition of cell proliferation incubated for 72 hrs by MTT assay; assay type: toxicity, cell-based
A549 [4] = experiment: Induction of cell cycle arrest in human A549 cells assessed as accumulation of cells at G1 phase at 125 nM incubated for 12 hrs by flow cytometry analysis (reference value: 59.57%); assay type: functional
A549 [5] = experiment: Induction of cell cycle arrest in human A549 cells assessed as accumulation of cells at S phase at 125 nM incubated for 12 hrs by flow cytometry analysis (reference value: 31.81%); assay type: functional
MDA-MB-231 [6] = experiment: Induction of apoptosis in human MDA-MB-231 cells assessed as live cells at 250 nM incubated for 24 hrs by annexin V-FITC/PI staining based flow cytometry analysis (reference value: 91.3%); assay type: functional
MDA-MB-231 [7] = experiment: Antitumor activity against human MDA-MB-231 cells xenografted in BALB/c nude mouse assessed as tumor growth inhibition at 25 mg/kg/day, ip administered for 15 days and measured once a day relative to control; assay type: functional; conditions: MDA-MB-231, 360 h, time 15 day, read-out: TGI
A549 [8] = experiment: Induction of cell cycle arrest in human A549 cells assessed as accumulation of cells at S phase at 31.25 nM incubated for 12 hrs by flow cytometry analysis (reference value: 31.81%); assay type: functional
A549 [9] = experiment: Induction of apoptosis in human A549 cells assessed as early apoptotic cells at 125 nM incubated for 24 hrs by annexin V-FITC/PI staining based flow cytometry analysis (reference value: 0.78%); assay type: functional
MDA-MB-231 [10] = experiment: Induction of cell cycle arrest in human MDA-MB-231 cells assessed as accumulation of cells at G2 phase at 125 nM incubated for 12 hrs by flow cytometry analysis (reference value: 15.91%); assay type: functional
MDA-MB-231 [11] = experiment: Induction of mitotic arrest in human MDA-MB-231 cells assessed as chromosome misalignment at 62.5 nM incubated for 12 hrs by alpha-tubulin/DAPI staining based confocal microscopic analysis; assay type: functional, cell-based
MDA-MB-231 [12] = experiment: Induction of cell cycle arrest in human MDA-MB-231 cells assessed as accumulation of cells at G2 phase at 31.25 nM incubated for 12 hrs by flow cytometry analysis (reference value: 15.91%); assay type: functional
MCF7 = experiment: Antiproliferative activity against human MCF7 cells assessed as inhibition of cell proliferation incubated for 72 hrs by MTT assay; assay type: functional, cell-based; conditions: MCF7, 72 h
MDA-MB-231 [13] = experiment: Induction of cell cycle arrest in human MDA-MB-231 cells assessed as accumulation of cells at G1 phase at 15.625 nM incubated for 12 hrs by flow cytometry analysis (reference value: 43.2%); assay type: functional; conditions: 0.01562 µM
A549 [14] = experiment: Induction of cell cycle arrest in human A549 cells assessed as accumulation of cells at G2 phase at 62.5 nM incubated for 12 hrs by flow cytometry analysis (reference value: 8.62%); assay type: functional
A549 [15] = experiment: Induction of apoptosis in human A549 cells assessed as dead cells at 62.5 nM incubated for 24 hrs by annexin V-FITC/PI staining based flow cytometry analysis (reference value: 0.75%); assay type: functional
MDA-MB-231 [16] = experiment: Induction of apoptosis in human MDA-MB-231 cells assessed as late apoptotic cells at 125 nM incubated for 24 hrs by annexin V-FITC/PI staining based flow cytometry analysis (reference value: 5.93%); assay type: functional
MDA-MB-231 [17] = experiment: Induction of apoptosis in human MDA-MB-231 cells assessed as live cells at 125 nM incubated for 24 hrs by annexin V-FITC/PI staining based flow cytometry analysis (reference value: 91.3%); assay type: functional
A549 [18] = experiment: Induction of apoptosis in human A549 cells assessed as late apoptotic cells at 250 nM incubated for 24 hrs by annexin V-FITC/PI staining based flow cytometry analysis (reference value: 5.28%); assay type: functional
[19] = Selectivity index, ratio of IC50 for human HepG2 cells to IC50 for human MDA-MB-231 cells; assay type: functional
A549 [20] = experiment: Induction of cell cycle arrest in wild type human A549 cells assessed as accumulation of cells at S phase at 125 nM incubated for 12 hrs by DAPI staining based flow cytometry analysis (reference value: 41.12 %); assay type: functional
A549 [21] = experiment: Induction of cell cycle arrest in human A549 cells assessed as accumulation of cells at G2 phase at 125 nM incubated for 12 hrs by flow cytometry analysis (reference value: 8.62%); assay type: functional
MDA-MB-231 [22] = experiment: Induction of cell cycle arrest in human MDA-MB-231 cells assessed as accumulation of cells at S phase at 125 nM incubated for 12 hrs by flow cytometry analysis (reference value: 40.89%); assay type: functional
A549 [23] = experiment: Induction of cell cycle arrest in RXRalpha knockout human A549 cells assessed as accumulation of cells at G1 phase at 125 nM incubated for 12 hrs by DAPI staining based flow cytometry analysis (reference value: 52.29 %); assay type: functional
[24] = Toxicity in BALB/c mouse xenografted with human MDA-MB-231 cells assessed as heart damage at 25 mg/kg/day, ip administered for 15 days by H and E staining based analysis; assay type: organism-based; conditions: in vivo, 360 h, time 15 day
MDA-MB-231 [25] = experiment: Induction of apoptosis in human MDA-MB-231 cells assessed as late apoptotic cells at 62.5 nM incubated for 24 hrs by annexin V-FITC/PI staining based flow cytometry analysis (reference value: 5.93%); assay type: functional
[26] = Drug absorption in KM mouse at 25 mg/kg, ip measured after 0.5 to 2 hrs; assay type: ADME, organism-based; conditions: in vivo, time 0.5-2 hrs
A549 [27] = experiment: Induction of cell cycle arrest in human A549 cells assessed as accumulation of cells at S phase at 62.5 nM incubated for 12 hrs by flow cytometry analysis (reference value: 31.81%); assay type: functional
MDA-MB-231 [28] = experiment: Induction of apoptosis in human MDA-MB-231 cells assessed as reduction in Mcl-1 protein expression measured after 24 hrs by Western blot analysis; assay type: functional, cell-based; conditions: dose 7.8-500 nM
[29] = Toxicity in BALB/c mouse xenografted with human MDA-MB-231 cells assessed as reduction in body weight at 12.5 to 25 mg/kg/day, ip administered for 15 days; assay type: organism-based; conditions: in vivo, 360 h, dose 12.5-25 mg/kg/day, time 15 day
A549 [30] = experiment: Induction of apoptosis in human A549 cells assessed as late apoptotic cells at 125 nM incubated for 24 hrs by annexin V-FITC/PI staining based flow cytometry analysis (reference value: 5.28%); assay type: functional
A549 [31] = experiment: Induction of cell cycle arrest in human A549 cells assessed as accumulation of cells at S phase at 15.625 nM incubated for 12 hrs by flow cytometry analysis (reference value: 31.81%); assay type: functional; conditions: 0.01562 µM
MDA-MB-231 [32] = experiment: Induction of apoptosis in human MDA-MB-231 cells assessed as dead cells at 250 nM incubated for 24 hrs by annexin V-FITC/PI staining based flow cytometry analysis (reference value: 0.69%); assay type: functional

With `O=C(/C=C/c1ccccc1)Nc1cc(-c2ccnc(N3CCC(CO)CC3)c2)ccn1` the Activity (MDA-MB-231 [1]) was “Active”, the Activity (MDA-MB-231 [2]) was 82.2% and the IC50 at 72 h [3] was 64 nM. The Activity (A549 [4]) was 16.45%, the Activity (A549 [5]) was 37.15% and the Activity (MDA-MB-231 [6]) was 57.9%. It also gave an inhibition in vivo at 25 mg/kg/day (MDA-MB-231 [7]) of 59.3%, an Activity (A549 [8]) of 32.4% and an Activity (A549 [9]) of 22.9%. For the same compound, the Activity (MDA-MB-231 [10]) was 85.88%, the Activity (MDA-MB-231 [11]) was “Active” and the Activity (MDA-MB-231 [12]) was 27.02%. It also gave an IC50 (MCF7) of 2340 nM, an Activity (MDA-MB-231 [13]) of 42.77% and an Activity (A549 [14]) of 12.89%. The Activity (A549 [15]) was 2.76%, the Activity (MDA-MB-231 [16]) was 19.2% and the Activity (MDA-MB-231 [17]) was 66.9%. For the same compound, the Activity (A549 [18]) was 21.4%, the “Ratio IC50” value [19] was 4.81 and the Activity (A549 [20]) was 18.11%. For the same compound, the Activity (A549 [21]) was 46.39%, the Activity (MDA-MB-231 [22]) was 14.05% and the Activity (A549 [23]) was 17.83%. The Activity [24] was “Non-Toxic”, the Activity (MDA-MB-231 [25]) was 15.2% and the Drug absorption [26] was “Active”. For the same compound, the Activity (A549 [27]) was 27.68%, the Activity (MDA-MB-231 [28]) was “Dose-Dependent Effect” and the Activity [29] was “Non-Toxic”. For the same compound, the Activity (A549 [30]) was 22.8%, the Activity (A549 [31]) was 31.99% and the Activity (MDA-MB-231 [32]) was 1.67%.
